{
  "source": "ChEMBL document CHEMBL5696442",
  "about": "“Discovery of type II inhibitors of TGFβ-activated kinase 1 (TAK1) and mitogen-activated protein kinase kinase kinase kinase 2 (MAP4K2)” (J Med Chem, 2015)",
  "key": {"[1]": {"target": "Tyrosine-protein kinase Fgr (Homo sapiens) (UniProt P09769)", "sequence (P09769 2-529 limits assumed)": "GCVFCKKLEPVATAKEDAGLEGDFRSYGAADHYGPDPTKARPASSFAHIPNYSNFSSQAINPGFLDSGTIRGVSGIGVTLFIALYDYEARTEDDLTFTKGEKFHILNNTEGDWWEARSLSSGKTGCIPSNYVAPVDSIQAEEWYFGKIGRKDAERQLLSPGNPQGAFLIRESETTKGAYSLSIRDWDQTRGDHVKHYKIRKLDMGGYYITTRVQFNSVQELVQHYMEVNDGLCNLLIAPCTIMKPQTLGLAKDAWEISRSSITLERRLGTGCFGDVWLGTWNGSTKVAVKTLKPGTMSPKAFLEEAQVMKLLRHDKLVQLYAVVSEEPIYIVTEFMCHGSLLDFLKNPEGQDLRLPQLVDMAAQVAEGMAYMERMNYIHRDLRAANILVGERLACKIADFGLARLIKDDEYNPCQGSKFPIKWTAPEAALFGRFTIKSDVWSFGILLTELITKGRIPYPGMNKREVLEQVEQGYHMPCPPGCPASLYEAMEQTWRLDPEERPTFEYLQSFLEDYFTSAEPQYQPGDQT", "test": "Inhibition of FGR (unknown origin) at 10 uM by Ambit Kinomescan binding assay relative to control"}, "[2]": {"target": "T1, Phosphatidylinositol 5-phosphate 4-kinase type-2 gamma (Homo sapiens) (UniProt Q8TBX8)", "T1 sequence (whole entry)": "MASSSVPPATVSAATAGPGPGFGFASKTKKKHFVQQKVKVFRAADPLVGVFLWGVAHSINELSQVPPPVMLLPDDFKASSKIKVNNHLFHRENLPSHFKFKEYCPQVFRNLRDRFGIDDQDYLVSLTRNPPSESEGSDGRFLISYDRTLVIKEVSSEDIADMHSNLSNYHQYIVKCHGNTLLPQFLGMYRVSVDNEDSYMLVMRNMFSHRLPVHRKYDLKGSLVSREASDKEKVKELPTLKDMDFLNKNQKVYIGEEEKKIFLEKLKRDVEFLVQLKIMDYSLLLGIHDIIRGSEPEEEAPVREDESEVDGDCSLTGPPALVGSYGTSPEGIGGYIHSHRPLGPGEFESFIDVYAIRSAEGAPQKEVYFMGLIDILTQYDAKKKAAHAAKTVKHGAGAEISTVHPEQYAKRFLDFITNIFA", "test": "Inhibition of PIP4K2C ATP labeling site harbouring TLVIKEVSSEDIADMHSNLSNYHQYIVK in human A-375 cells at 0.05 uM by KiNativ Profiling analysis relative to control", "format": "cell-based"}, "[3]": {"test_system": "Epidermal growth factor receptor (Homo sapiens), P00533 [UNDEFINED MUTATION]", "sequence (P00533 whole entry, looked up, stated change not applied)": "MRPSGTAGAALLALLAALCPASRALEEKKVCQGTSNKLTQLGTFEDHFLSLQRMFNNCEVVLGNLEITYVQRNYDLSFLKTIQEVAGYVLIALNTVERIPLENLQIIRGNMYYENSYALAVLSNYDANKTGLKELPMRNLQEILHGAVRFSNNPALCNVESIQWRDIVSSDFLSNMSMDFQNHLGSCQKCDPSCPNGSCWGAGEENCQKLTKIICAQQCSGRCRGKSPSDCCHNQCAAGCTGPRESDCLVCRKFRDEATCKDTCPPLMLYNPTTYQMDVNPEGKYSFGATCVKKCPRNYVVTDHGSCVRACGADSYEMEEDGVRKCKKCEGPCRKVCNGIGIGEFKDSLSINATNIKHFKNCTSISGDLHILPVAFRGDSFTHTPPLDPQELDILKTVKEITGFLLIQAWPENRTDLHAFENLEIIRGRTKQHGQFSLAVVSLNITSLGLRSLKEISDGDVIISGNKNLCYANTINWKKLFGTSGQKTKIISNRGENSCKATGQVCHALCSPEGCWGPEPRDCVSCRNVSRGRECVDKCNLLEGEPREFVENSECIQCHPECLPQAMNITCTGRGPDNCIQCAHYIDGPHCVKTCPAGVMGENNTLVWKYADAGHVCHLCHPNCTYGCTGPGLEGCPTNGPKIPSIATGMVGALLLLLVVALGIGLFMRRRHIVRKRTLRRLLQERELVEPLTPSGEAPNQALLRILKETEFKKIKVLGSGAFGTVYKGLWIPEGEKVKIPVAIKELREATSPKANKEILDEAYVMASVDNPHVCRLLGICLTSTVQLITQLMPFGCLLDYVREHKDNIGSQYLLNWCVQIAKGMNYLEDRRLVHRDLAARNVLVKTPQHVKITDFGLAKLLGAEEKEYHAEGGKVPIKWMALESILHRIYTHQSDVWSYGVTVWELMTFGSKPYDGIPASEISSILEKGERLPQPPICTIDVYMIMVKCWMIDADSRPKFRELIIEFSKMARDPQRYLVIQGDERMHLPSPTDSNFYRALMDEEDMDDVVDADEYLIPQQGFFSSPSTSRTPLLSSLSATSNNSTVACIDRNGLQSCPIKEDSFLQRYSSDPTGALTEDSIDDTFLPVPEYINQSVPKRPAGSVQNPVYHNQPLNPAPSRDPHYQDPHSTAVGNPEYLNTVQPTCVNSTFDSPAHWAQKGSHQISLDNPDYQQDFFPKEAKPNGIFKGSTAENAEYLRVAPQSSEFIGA", "test": "Inhibition of EGFR L747-E749del/A750P mutant (unknown origin) at 1 uM by Ambit Kinomescan binding assay relative to control"}, "[4]": {"target": "MAP/microtubule affinity-regulating kinase 4 (Homo sapiens) (UniProt Q96L34)", "test": "Inhibition of MARK4 (unknown origin) at 1 uM by Ambit Kinomescan binding assay relative to control"}, "[5]": {"target": "Non-receptor tyrosine-protein kinase TYK2 (Homo sapiens) (UniProt P29597)", "sequence (P29597 whole entry, the tested form may be a part)": "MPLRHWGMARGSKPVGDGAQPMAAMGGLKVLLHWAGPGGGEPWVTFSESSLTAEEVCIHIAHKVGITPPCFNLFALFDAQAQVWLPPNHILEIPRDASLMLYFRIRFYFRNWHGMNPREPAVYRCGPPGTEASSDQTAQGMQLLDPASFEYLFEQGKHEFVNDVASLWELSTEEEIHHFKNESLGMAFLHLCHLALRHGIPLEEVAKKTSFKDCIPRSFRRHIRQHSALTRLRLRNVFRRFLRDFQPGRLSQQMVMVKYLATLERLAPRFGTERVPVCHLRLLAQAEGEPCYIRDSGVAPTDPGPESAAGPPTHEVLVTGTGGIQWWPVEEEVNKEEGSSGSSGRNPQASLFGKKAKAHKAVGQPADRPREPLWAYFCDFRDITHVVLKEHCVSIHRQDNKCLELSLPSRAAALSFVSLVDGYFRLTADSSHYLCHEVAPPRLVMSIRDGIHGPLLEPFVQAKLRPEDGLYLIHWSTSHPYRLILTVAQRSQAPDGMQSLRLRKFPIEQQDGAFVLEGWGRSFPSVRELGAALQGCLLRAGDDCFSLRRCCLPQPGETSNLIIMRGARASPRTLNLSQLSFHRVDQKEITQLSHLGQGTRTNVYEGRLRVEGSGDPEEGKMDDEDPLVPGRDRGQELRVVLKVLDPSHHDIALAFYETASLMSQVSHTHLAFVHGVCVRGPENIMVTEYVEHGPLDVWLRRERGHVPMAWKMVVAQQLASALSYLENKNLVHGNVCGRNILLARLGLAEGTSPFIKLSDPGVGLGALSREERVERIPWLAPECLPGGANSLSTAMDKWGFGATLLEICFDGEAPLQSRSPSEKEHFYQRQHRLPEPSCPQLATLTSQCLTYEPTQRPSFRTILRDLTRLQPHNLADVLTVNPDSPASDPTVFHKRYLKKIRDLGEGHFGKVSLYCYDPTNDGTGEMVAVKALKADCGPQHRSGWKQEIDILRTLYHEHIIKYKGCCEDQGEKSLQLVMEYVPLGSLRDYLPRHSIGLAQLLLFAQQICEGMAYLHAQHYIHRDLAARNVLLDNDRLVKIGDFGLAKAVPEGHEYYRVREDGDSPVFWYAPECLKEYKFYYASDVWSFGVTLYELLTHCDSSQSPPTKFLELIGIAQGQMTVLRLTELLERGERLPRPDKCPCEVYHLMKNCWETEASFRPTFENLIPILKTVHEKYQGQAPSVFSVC", "test": "Inhibition of TYK2 JH1catalytic domain (unknown origin) at 1 uM by Ambit Kinomescan binding assay relative to control"}, "[6]": {"target": "Serine/threonine-protein kinase MARK1 (Homo sapiens) (UniProt Q9P0L2)", "sequence (Q9P0L2 whole entry, looked up)": "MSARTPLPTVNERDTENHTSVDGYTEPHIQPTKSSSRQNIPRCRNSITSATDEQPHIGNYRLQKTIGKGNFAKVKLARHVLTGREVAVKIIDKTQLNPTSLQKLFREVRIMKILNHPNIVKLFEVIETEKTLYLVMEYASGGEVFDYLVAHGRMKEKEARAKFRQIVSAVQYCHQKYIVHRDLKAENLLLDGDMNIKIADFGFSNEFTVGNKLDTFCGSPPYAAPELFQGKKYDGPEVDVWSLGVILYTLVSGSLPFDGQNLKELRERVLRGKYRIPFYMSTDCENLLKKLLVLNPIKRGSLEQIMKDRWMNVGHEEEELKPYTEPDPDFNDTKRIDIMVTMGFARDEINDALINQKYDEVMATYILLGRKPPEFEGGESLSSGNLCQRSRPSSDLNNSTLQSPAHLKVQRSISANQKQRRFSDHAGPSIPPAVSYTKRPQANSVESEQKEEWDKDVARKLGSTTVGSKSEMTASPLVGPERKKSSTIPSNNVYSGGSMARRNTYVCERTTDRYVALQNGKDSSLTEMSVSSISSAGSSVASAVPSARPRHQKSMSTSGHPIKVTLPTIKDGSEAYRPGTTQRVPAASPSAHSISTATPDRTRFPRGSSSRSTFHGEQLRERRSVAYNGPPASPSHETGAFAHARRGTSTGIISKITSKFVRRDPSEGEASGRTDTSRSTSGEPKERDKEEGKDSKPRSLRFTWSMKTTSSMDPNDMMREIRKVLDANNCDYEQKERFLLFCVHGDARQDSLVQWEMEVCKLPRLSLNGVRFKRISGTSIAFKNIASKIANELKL", "test": "Inhibition of MARK1 Lys2 labeling site in human A-375 cells at 0.05 uM by KiNativ Profiling analysis relative to control", "format": "cell-based"}, "[7]": {"target": "Tyrosine-protein kinase Tec (Homo sapiens) (UniProt P42680)", "test": "Inhibition of TEC (unknown origin) at 1 uM by Ambit Kinomescan binding assay relative to control"}, "[8]": {"target": "T2, Mitogen-activated protein kinase kinase kinase 2 (Homo sapiens) (UniProt Q9Y2U5)", "T2 sequence (whole entry)": "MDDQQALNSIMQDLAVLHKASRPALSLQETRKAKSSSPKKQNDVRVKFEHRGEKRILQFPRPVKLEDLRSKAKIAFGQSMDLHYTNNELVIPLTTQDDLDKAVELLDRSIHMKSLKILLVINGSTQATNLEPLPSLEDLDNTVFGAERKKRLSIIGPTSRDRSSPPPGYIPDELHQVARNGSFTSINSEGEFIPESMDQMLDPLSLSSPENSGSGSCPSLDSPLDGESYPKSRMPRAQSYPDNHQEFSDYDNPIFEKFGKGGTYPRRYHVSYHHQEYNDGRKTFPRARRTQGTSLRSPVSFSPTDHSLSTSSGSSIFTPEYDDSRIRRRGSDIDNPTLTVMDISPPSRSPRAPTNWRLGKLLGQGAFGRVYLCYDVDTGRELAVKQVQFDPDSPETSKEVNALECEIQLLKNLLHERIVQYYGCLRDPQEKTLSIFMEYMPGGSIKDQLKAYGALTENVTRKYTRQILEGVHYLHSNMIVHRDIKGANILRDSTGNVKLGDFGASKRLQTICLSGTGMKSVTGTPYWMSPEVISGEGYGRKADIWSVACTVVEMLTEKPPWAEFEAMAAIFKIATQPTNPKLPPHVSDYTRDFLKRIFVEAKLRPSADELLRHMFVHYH", "test": "Inhibition of MAP3K2 (unknown origin) at 1 uM by Ambit Kinomescan binding assay relative to control; values are per cent of control"}, "[9]": {"target": "Ephrin type-A receptor 2 (Homo sapiens, UniProt P29317)", "sequence (P29317 whole entry)": "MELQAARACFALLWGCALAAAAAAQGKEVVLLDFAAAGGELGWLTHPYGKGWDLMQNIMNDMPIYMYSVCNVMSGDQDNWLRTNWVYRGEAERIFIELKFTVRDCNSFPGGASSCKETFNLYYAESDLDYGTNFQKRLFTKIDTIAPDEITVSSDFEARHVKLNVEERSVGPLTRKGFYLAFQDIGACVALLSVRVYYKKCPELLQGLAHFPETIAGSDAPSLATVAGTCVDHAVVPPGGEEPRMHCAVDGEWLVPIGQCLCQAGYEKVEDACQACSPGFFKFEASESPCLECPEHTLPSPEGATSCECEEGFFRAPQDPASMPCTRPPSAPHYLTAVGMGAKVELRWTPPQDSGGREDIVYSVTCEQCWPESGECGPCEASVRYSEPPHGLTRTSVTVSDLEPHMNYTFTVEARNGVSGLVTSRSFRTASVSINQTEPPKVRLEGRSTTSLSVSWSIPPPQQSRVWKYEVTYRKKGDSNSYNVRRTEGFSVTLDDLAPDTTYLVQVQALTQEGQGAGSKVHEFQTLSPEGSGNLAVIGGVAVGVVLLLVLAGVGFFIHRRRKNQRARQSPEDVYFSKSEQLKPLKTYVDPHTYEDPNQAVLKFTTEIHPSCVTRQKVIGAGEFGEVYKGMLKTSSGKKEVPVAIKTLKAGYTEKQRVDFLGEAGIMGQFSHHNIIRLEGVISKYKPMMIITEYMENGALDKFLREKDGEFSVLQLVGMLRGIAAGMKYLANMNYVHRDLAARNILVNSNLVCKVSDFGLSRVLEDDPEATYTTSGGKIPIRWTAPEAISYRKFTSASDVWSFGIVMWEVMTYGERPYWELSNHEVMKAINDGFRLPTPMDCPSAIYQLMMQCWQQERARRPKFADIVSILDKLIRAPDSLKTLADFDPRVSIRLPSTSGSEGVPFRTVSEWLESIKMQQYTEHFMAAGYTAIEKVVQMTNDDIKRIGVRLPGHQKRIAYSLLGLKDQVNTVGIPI", "test": "Inhibition of EphA2 ACT labeling site in human Huh-7 cell lysate at 1 uM by KiNativ Profiling analysis relative to control", "format": "subcellular"}, "[10]": {"target": "T3, Serine/threonine-protein kinase greatwall (Homo sapiens) (UniProt Q96GX5)", "T3 sequence (whole entry)": "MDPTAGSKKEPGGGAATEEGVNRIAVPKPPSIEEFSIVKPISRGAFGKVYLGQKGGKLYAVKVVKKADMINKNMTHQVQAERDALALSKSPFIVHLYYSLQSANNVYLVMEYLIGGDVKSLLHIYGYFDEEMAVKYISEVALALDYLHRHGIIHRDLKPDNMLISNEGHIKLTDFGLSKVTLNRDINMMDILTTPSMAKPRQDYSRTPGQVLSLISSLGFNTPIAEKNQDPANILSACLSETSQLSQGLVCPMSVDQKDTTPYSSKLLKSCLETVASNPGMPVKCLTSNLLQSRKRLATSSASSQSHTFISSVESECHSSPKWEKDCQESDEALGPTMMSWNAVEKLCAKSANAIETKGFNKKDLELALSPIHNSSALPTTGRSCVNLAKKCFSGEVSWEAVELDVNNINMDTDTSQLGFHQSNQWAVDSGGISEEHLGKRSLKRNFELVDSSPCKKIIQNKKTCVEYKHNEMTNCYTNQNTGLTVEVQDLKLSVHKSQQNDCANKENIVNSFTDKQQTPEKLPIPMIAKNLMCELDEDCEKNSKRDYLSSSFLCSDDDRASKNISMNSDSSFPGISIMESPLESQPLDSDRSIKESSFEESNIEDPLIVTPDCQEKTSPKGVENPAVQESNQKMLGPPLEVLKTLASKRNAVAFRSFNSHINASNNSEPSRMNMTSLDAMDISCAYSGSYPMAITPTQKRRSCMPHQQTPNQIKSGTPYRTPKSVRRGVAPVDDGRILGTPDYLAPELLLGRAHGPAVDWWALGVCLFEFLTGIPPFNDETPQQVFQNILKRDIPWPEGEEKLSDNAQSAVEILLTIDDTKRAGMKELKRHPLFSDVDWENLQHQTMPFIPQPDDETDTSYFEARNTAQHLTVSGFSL", "test": "Inhibition of MASTL ATP labeling site in human Huh-7 cell lysate at 1 uM by KiNativ Profiling analysis relative to control", "format": "subcellular"}, "[11]": {"target": "Cyclin-dependent kinase 10 (Homo sapiens) (UniProt Q15131)", "sequence (Q15131 whole entry)": "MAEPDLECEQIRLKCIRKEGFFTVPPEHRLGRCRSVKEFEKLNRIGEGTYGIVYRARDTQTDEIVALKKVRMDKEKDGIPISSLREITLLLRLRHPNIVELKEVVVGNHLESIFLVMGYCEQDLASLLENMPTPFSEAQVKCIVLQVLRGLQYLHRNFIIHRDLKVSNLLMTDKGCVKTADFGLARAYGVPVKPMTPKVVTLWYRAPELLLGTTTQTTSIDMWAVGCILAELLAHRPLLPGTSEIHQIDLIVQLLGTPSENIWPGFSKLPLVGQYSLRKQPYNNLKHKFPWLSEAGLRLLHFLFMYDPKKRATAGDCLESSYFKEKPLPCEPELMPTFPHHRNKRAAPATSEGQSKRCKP", "test": "Inhibition of CDK10 Lys2 labeling site in human Huh-7 cells at 1 uM by KiNativ Profiling analysis relative to control", "format": "cell-based"}, "[12]": {"target": "Serine/threonine-protein kinase MARK2 (Homo sapiens) (UniProt Q7KZI7)", "test": "Inhibition of MARK2 Lys1 labeling site harbouring HILTGKEVAVKIIDKTQLNSSSLQK in human Huh-7 cells at 1 uM by KiNativ Profiling analysis relative to control", "format": "cell-based"}},
  "data": [
    {"smiles": "CCN1CCN(Cc2ccc(NC(=O)c3ccc(C)c(Oc4ccnc5[nH]ccc45)c3)cc2C(F)(F)F)CC1", "values": [
      {"measurement": "inhibition", "setting": "[1]", "result": 1.2, "unit": "%"},
      {"measurement": "inhibition", "setting": "[2]", "result": -1.1, "unit": "%"}
    ]},
    {"smiles": "CCN1CCN(Cc2ccc(NC(=O)c3ccc(C)c(/C=C/c4cnc5[nH]ccc5c4OC)c3)cc2C(F)(F)F)CC1", "values": [
      {"measurement": "inhibition", "setting": "[3]", "result": 3, "unit": "%"},
      {"measurement": "inhibition", "setting": "[4]", "result": 81, "unit": "%"},
      {"measurement": "inhibition", "setting": "[5]", "result": 70, "unit": "%"},
      {"measurement": "inhibition", "setting": "[6]", "result": 17.5, "unit": "%"},
      {"measurement": "inhibition", "setting": "[7]", "result": 16, "unit": "%"},
      {"measurement": "residual activity", "setting": "[8]", "result": 23, "unit": "%"}
    ]},
    {"smiles": "CNc1cc(Oc2cc(C(=O)Nc3cc(N4CCN(C)CC4)cc(C(F)(F)F)c3)ccc2C)ncn1", "values": [
      {"measurement": "inhibition", "setting": "[9]", "result": 25.1, "unit": "%"},
      {"measurement": "inhibition", "setting": "[10]", "result": 8.6, "unit": "%"},
      {"measurement": "inhibition", "setting": "[11]", "result": 59.3, "unit": "%"},
      {"measurement": "inhibition", "setting": "[12]", "result": -0.2, "unit": "%"}
    ]}
  ]
}
